# Source: patent US10647680B2, “Urea compound, preparation method therefor and medical use thereof” (Ancureall Pharmaceutical (Shanghai) Co., Ltd., priority 2016, dated 2020)
# Target: T1, hERG potassium ion channel (Homo sapiens, UniProt Q12809)
# T1 construct: host or cells: HEK-293
# Test: hERG test (whole cell model)
# Format: cell-based
# Settings: for Ratio (%): n=3
# Experimental: The whole cell model hERG test was performed with compound 77 of the present invention as a representative example, 30 uM Quinidine (Sigma) was used as a positive control.
# Procedure: hERG potassium ion channel HEK-293 cells (Krius Biology) were over-expressed, and cultured at a 37° C., 5% CO2 incubator. The culture medium was DMEM supplemented with 15% fetal bovine serum and 1% penicillin-streptomycin. The stably transfected cells were inoculated to slides, with a cell density of less than 50%, and cultured overnight. The experimental cells were transferred to an approximately 1 mL bath tank embedded in an inverted microscope platform (Diaphot, Nikon), and the extracellular fluid was perfused at a perfusion rate of 2.7 mL/min. The experiment could be started after stabilization for 5 minutes and precipitation of cells. Membrane current was recorded by HEKAEPC-10 patch clamp amplifier and […] acquisition system (HEKA Instruments Inc., D-67466 Lambrecht/Pfalz Germany). All experiments were completed at room temperature (22-24° C.). During the experiment, a P-97 microelectrode control apparatus (Sutter Instrument Company, One Digital Drive, Novato, Calif. 94949) was used to […] the electrodes (BF150-110-10). The inner diameter of the electrode was 1-1.5 mm, and the inlet resistance after filling with the liquid was 2-4 MQ. Electrophysiological stimulation of the hERG potassium channel: firstly, the membrane voltage was clamped at −80 mV, and cells were given continuous stimulation of 2 s, +20 mV voltage, to activate hERG potassium ion channel and repolarization to −50 mV for 5 s, to generate outward tail current. The stimulation frequency was once every 15 seconds. The current value was the peak value of tail current. By measuring the maximum current value of the treatment group and the control group, the ratio of the maximum current value of the treatment group to the maximum current value of the control group (Mean±SE) was calculated, to evaluate the effect of the test compounds on the hERG potassium ion channel under the test concentration. Statistics and analysis of experimental data were performed by Origin 8.5 (OriginLab Corporation, Northampton, Mass.).
# T1 sequence (Q12809 whole entry): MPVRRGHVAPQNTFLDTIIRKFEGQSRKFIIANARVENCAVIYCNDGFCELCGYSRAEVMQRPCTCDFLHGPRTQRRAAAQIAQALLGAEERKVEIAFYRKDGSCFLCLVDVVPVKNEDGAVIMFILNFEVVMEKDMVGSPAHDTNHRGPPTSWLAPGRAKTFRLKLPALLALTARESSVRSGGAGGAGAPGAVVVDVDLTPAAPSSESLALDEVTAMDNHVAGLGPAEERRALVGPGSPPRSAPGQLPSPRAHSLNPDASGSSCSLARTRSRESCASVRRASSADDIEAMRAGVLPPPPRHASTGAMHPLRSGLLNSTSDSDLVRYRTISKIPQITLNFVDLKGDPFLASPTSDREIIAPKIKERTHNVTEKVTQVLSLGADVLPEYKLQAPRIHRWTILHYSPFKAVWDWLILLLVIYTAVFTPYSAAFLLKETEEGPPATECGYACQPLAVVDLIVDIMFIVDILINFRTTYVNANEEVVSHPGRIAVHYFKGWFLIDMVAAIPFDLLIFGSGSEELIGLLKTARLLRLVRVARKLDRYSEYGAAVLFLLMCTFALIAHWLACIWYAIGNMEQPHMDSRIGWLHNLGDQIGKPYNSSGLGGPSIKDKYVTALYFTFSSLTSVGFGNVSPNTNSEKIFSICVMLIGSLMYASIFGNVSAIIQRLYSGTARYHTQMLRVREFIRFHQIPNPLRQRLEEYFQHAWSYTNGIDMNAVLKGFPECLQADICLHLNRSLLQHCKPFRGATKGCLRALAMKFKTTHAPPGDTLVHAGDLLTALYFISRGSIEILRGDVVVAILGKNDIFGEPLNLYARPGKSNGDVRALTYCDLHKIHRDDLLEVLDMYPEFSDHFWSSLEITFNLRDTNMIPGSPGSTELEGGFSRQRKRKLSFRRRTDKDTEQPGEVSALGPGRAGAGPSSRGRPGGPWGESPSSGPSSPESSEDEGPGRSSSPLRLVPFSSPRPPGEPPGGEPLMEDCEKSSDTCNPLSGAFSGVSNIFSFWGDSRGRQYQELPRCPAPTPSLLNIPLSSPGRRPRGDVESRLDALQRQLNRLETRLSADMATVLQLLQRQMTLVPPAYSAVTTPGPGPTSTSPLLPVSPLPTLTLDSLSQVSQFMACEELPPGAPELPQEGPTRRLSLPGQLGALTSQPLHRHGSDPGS
smiles,measurement,setting,value
"COCCOc1ccc2c(c1)ncn2-c1ccc(NC(=O)Nc2cc(C(C)(C)C)n[nH]2)cc1 [Compound 77, 1-(5-tert-butyl-2H-pyrazol-3-yl)-3-{4-[5-(2-methoxyl-ethoxyl)-benzimidazol-1-yl]-phenyl}-urea]",Ratio (%),Concentration 0.3 uM,94.96%
same,Ratio (%),Concentration 1 uM,86.71%
same,Ratio (%),Concentration 3 uM,75.85%
same,Ratio (%),Concentration 10 uM,53.71%
same,Ratio (%),Concentration 30 uM,37.47%
same,blocking effect on the hERG potassium ion channel,within the range of test concentrations,a certain blocking effect
